How the values were obtained:
[1] = target: Proton Potassium ATPase (H+ K+ ATPase) (Ovis aries, UniProt A0ACI6QGK8); test: Proton potassium ATPase inhibition (PPI), inorganic phosphate release; type: biochemical, sheep; conditions: calculated contribution of GRAOX components
Protocol: Fresh sheep stomach was obtained from local slaughterhouse at Mysore. The mucosa of gastric fundus was cut off and the inner layer were scraped for parietal cells and homogenized in 16 mM Tris buffer (pH 7.4) containing 10% triton-x100 and centrifuged at 6000 rpm for 10 min. The supernatant (enzyme extract) was used for the assay. Protein content was determined according to Brad ford's method using BSA as standard.
Inorganic phosphate formed was measured spectrophotometrically at 400 nm. Enzyme activity was calculated as μ moles of Pi released/hr at various doses of GRAOX and GRPP. […] (FIG. 1, Table. 1)

[2] = Antioxidant (Aox) potency of identified phenolic acids; conditions: for Contribution towards AOX potency of GRAOX: calculated contribution of GRAOX components
Protocol: The identified phenolic acids were examined for their ability to inhibit proton potassium ATPase activity and their antioxidant potency was also determined.

Sequence of Proton Potassium ATPase (H+ K+ ATPase) (A0ACI6QGK8 entry or part of it): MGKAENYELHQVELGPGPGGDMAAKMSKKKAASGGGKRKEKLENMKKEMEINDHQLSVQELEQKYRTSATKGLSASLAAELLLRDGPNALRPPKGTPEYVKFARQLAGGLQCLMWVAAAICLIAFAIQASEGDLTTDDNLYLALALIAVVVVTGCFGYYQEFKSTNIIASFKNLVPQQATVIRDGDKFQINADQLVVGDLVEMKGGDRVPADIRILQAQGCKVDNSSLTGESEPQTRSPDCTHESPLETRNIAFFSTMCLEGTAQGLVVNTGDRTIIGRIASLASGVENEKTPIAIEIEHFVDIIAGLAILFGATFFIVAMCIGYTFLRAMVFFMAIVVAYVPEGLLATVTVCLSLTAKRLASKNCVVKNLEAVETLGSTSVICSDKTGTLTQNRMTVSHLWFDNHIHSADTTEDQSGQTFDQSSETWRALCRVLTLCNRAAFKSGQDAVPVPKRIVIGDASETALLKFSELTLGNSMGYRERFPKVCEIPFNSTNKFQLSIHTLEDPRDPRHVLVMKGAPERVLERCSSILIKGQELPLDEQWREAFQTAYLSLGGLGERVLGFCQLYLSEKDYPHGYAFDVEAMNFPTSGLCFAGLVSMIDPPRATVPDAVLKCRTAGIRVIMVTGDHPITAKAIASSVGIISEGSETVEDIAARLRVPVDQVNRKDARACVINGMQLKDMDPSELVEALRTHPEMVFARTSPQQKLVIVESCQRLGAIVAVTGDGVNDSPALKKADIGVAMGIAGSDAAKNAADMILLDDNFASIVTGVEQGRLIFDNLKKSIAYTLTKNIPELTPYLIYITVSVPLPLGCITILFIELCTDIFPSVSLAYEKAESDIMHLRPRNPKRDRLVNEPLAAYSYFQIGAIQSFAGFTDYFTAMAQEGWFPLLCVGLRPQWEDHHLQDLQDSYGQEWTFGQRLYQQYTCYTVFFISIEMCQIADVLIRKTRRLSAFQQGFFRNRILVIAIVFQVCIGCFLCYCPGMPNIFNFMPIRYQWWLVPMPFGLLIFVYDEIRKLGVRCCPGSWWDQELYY
Sequence of Proton Potassium ATPase (H+ K+ ATPase) (A0ACI6PNA7 entry or part of it, further chain): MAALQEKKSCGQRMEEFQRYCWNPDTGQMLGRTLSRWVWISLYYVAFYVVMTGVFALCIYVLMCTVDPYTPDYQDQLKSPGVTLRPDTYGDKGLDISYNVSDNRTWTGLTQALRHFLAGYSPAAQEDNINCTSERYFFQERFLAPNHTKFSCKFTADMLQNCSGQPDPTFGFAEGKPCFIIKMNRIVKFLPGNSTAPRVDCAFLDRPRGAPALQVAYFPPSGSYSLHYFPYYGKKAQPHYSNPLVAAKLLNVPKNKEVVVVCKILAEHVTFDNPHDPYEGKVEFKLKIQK

O=C(O)C=Cc1ccccc1 [Cinnamic acid]
Contribution towards H+K+ ATPase activity of GRAOX [1]: ~90% | Contribution towards AOX potency of GRAOX [2]: ~2%

Gallic acid/Tannic acid
Contribution towards H+K+ ATPase activity of GRAOX [1]: ~6% | Contribution towards AOX potency of GRAOX [2]: ~92% | antioxidant potency fold higher than Cinnamic acid ([2]; ratio versus Cinnamic acid): ~20 fold

From patent publication US8158608B2, “Bioactive fraction from Zingier officinale and a process for the preparation thereof” (Council of Scientific and Industrial Research, priority 2006, dated 2012)
